In patent US7666996B2, “Casein derived peptides and uses thereof” (priority 2000, dated 2010):

Columns and labels:
[1] = tested on: Non-Obese Diabetic (NOD) mice; assay: Glucosuria in Non-Obese Diabetic (NOD) mice; assay type: in vivo; details: for prevention of onset of glucosuria (in words): additional series, assayed at week 16, data not shown
Procedure: Juvenile (Type I, IDDM) diabetes in Non-Obese Diabetic (NOD) mice:
Peptides derived from natural casein: NOD mice are a commonly used model for research of autoimmune disease and human Juvenile Diabetes. Six week old female NOD mice received either one or two injections per week of 100 μg of peptides derived from natural casein, for a total of 5 or 10 treatments. Control mice received no treatment. The severity of disease was determined according to glucosuria, which was measured using Combi test sticks [Gross, D. J. et al (1994), Diabetology, 37:1195]. Results were expressed as the percent of glucosuria-free mice in each sample over a 365-day period.
Synthetic peptides derived from casein: In another experiment, 6 week old female NOD mice received one injection per week of 100 μg of Synthetic peptides derived from casein for a total of 5 treatments. Control mice received no treatment. Results were expressed as the number of healthy mice in the various treated groups.

[2] = tested on: human Peripheral Blood Stem Cells (K562 target cells); assay: Natural Killer (NK) cell activity in cultured human PBSC; assay type: cell-based
Procedure: From human Peripheral Blood Stem Cells (PBSC): PBSC of G-CSF treated subjects were separated on a FICOLL gradient, washed twice with RPMI-1640 medium containing 10% FCS and glutamine and seeded into 1.5 ml wells with or without peptides derived from natural casein or synthetic peptides derived from casein, as indicated, (0-500 μg per ml). Following two days incubation the cells were assayed for Natural Killer activity by measuring radioactivity released from ^35S-labeled K562 target cells (NEG-709A, 185.00 MBq, […] EASYTAGth Methionine, L-[^35S] 43.48 TBq per mmol, 1175.0 Ci per mmol, 0.488 ml, Boston USA). Two concentrations of effector cells (2.5×10^5 and 5×10^5 cells per well) were incubated with 5×10^3 target cells per well (effector:target cell ratios of 50:1 and 100:1, respectively) in U-bottomed 96 well tissue culture plates. The cells were incubated for 5 hours at 37° C. in 5% CO2, 95% air and precipitated by 5 minutes centrifugation at 1000 rpm. ^35S release was measured in 50 μl samples of the supernatant liquid.

[3] = tested on: HIV-1 (CEM lymphocyte cells); assay: Inhibition of HIV-1 infection of CEM lymphocytes; assay type: cell-based; details: for Lymphocyte cell numbers: day 7; for HIV-1 infection level, HIV-P24 antigen: control 0.52
Procedure: Peptides: Peptides [either peptides derived from natural casein or synthetic peptides derived from casein (2-26 amino acids in length, see table 3)] supplied as lyophilized powder were resuspended in RPMI complete medium and added to cell cultures at a final concentrations of 50 to 1000 μg per ml.
Cells: Several types of freshly isolated human cells (primary cells) and cell lines are known to be susceptible to in vitro HIV-1 infection, although essentially any cell displaying even low surface levels of the CD4 molecule can be considered a potential target for HIV-1 infection. Two commonly used human cell lines which are highly sensitive for HIV-1 infection were chosen, CEM and Sup-T1.
CEM is a human T4-lymphoblastoid cell line initially derived by G. E. Foley et al. [(1965), Cancer 18:522] from peripheral blood buffy coat of a person with acute lymphoblastic leukemia. These cells were continuously maintained in suspension in medium, and have been used widely for analysis of infectivity, antiviral agents and neutralizing antibodies.
Virus: The HIV virus strain employed was HIV-1IIIB, originally designated HTLV-IIIB. Concentrated culture fluids of peripheral blood from several patients with AIDS or related diseases were used to establish a permanent productive infection in H-9 cells. This subtype B virus has high capacity to replicate in human T-cell lines. Viral titer was 5.38 ng per ml in stock solution.
HIV-1 P^24 antigen capture assay: An HIV-1 P^24 Antigen capture assay kit employed was designed to quantitate the HIV-1 P^24 core antigen, which is proportionally related to the degree of viral production in cells. This kit was purchased from the AIDS Vaccine program of the SAIC-NCI-Frederick Cancer Research Institute, P.O. Box B, Frederick, Md. 21702, USA and included 96 well plates coated with monoclonal antibody to HIV-1 P^24, primary antibody-rabbit anti-HIV P^24 serum, secondary antibody-Goat anti-rabbit-IgG (H+L) peroxidase conjugated antibody, TMB peroxidase substrate system and lysed HIV-1 P^24 standard. The HIV-1 P^24 antigen capture assay was analyzed by Organon-Technica ELISA reader at 450 nm with a reference at 650 nm.
HIV-1 P^24 antigen capture ELISA: HIV infection was measured with an indirect enzyme immunoassay which detects HIV-1 P^24 core antigens in tissue culture media. Tissue culture supernatant was reacted with primary rabbit anti-HIV-1 P^24 antigen and visualized by peroxidase conjugated goat anti rabbit IgG. The reaction was terminated by adding 4N H2SO4, wherein the intensity of the color developed is proportional to the amount of HIV-1 antigen present in the tissue culture supernatant.
HIV infection of human cultured CD4 cells: For longer incubations, the cells (CEM, Sup-T1) were preincubated with several increasing concentrations of peptides derived from natural casein (50-1000 μg per ml) or synthetic peptides derived from casein (10-500 μg per ml) for 24 (for synthetic and natural peptides) and 48 (only for natural peptides) hours and HIV-1IIIB (45 pg per ml final concentration) was added to each well thereafter. For the shorter incubations (3 hours), HIV-1IIIB was preincubated with the peptides for 3 hours and then added to cells (5000 cells/well) in tissue culture plates. Controls were IF (Infected, cells cultured with HIV-1 and without peptides), UIF (Uninfected, cells cultured without HIV-1 and without peptides) and UIF +Ch (Uninfected+peptides derived from natural casein, cells cultured in the presence of peptides derived from natural casein {50-1000 μg per ml}) to test the effect of peptides derived from natural casein and synthetic peptides derived from casein on cell viability and growth. Cells were counted for viability and proliferation rate on day 7, 10 and day 14 post infection (the day of P^24 antigen culture supernatant harvest). Cells and tissue culture supernatants (media) were harvested and lysed immediately in 1/10 volume of 10% Triton X-100. […]

[4] = tested on: murine bone marrow progenitor cells; assay: CFU-GEMM colonies from murine bone marrow cells, differential counts; assay type: cell-based; details: 53% in controls
Procedure: Proliferation of megakaryocytes in multipotential colonies (CFU-GEMM) from murine bone marrow cells: Primary bone marrow cells (1×10^5 per ml) from 8-12 week-old C3H/HeJ […], 95% air, at 37° C. The medium, appropriate for the growth of multipotential colonies (CFU-GEMM), contained 1% BSA (Sigma), 10^−4 M thioglycerol (Sigma), 2.8×10^−4 M human transferrin (TF, Biological industries, Israel), 10% WEHI-CM as a source of IL-3 and 2 units per ml erythropoietin (rhEPO, R & D Systems, Minneapolis). […] They were picked with a micropipette, cytocentrifuged and stained with May-Grunwald-Giemsa for differential counts. At least 700 cells were counted for each preparation.
Proliferation of Dendritic cells in CFU-GEMM: Multipotent (CFU-GEMM) colonies grown from primary bone marrow cells as described for the assay of megakaryocyte proliferation above were collected, stained and counted for dendritic cells. At least 700 cells were counted for each preparation.
Proliferation of Plasma cells in CFU-GEMM: Multipotent (CFU-GEMM) colonies grown from primary bone marrow cells as described for the assay of megakaryocyte proliferation above were collected, stained and counted for plasma cells. At least 700 cells were counted for each preparation.
Proliferation of Macrophage Cells in CFU-GEMM: Multipotent (CFU-GEMM) colonies grown from primary bone marrow cells as described for the assay of megakaryocyte proliferation above were collected, stained and counted for macrophage cells. At least 700 cells were counted for each preparation.
Proliferation of Red Blood Cells in CFU-GEMM: Multipotent (CFU-GEMM) colonies grown from primary bone marrow cells as described for the assay of megakaryocyte proliferation above were collected, stained and counted for red blood cells. At least 700 cells were counted for each preparation.
Proliferation of Polymorphonuclear Cells (PMN) in CFU-GEMM: Multipotent (CFU-GEMM) colonies grown from primary bone marrow cells as described for the assay of megakaryocyte proliferation above were collected, stained and counted for polymorphonuclear cells. […]

[5] = tested on: murine bone marrow progenitor cells; assay: CFU-GM colony formation with IL-3 and G-CSF, murine bone marrow; assay type: cell-based
Procedure: Cells were scored in the macroscopic colonies grown from murine bone marrow cells prepared similarly to the CFU-GEMM colonies previously described. Cells were incubated with hematopoietic factors cytokine (IL-3) and colony stimulating factor (G-CSF), and 25 μg or more of synthetic peptides derived from casein (J), representing amino acids 1-22 of α-S1 casein, or 30-4, representing amino acids 1-6 of α-S1 casein, for 14 days, individually or in combination. The stimulation of colony formation (CFU) is expressed as the number of myeloid colonies in 10^5 plated MNCs.
Synthetic peptides derived from αS1-casein stimulate Granulopoietic (GM) cell proliferation in CFU-GM: As mentioned hereinabove, formation and expansion of CFU-GM (Granulocyte and Macrophage) colonies, and CFU-GEMM (Granulocyte, Erythroid, Macrophage and Megakaryocyte) colonies constitute one of the early events in the differentiation of hematopoietic progenitor cells in the bone marrow.

[6] = tested on: irradiated, bone marrow transplanted mice; assay: Leukocyte and platelet reconstitution in bone marrow transplant recipient mice; assay type: in vivo; details: 800 cGy; 1.0 mg i.p. daily, days 4-7
Procedure: Leukocyte and platelet reconstitution in bone marrow transplant recipient Mice: BALB/c mice were sub-lethally irradiated at a source to skin distance of 70 cm, dosage of 50 cGy per minute, for a total of 600 cGy. The irradiated mice were […] casein, synthetic peptides derived from casein (13-26 amino acids, see Table 3 above), or human serum albumin (controls), following a double-blinded protocol. Leukocyte reconstitution was determined according to cell count in peripheral blood collected at indicated intervals from 6 to 12 days post treatment. Platelet reconstitution was determined by cell count in blood collected from the retro orbital plexus, into EDTA-containing vials, at indicated intervals from day 6 to day 15 post treatment. […]
In a third series of experiments, the mice were irradiated (800 cGy), reconstituted and injected intraperitoneally with 1.0 mg synthetic peptides derived from casein (peptides 3a and 4P, representing the first 6 and 12 amino acids of the N terminus of αS1 casein, respectively—see Table 3 above) daily, on days 4, 5, 6 and 7 post-transplantation. Platelet reconstitution was assayed at 10 and 12 days post-transplantation.
In a fourth series of experiments, F1 mice were irradiated (750 cGy), reconstituted with syngeneic bone marrow, and injected intravenously 24 hours later with 1 mg per mouse of synthetic peptides derived from casein representing amino acids 1-22 of the N terminus of αS1 casein. In addition, 2 (two) groups of mice were treated each with a natural fraction of αS1 casein position 1-23, and a fraction of peptides derived from natural κ-casein, representing amino acid coordinates 106-169 of κ-casein (SEQ ID NO: 27). WBC counts were conducted on days 5, 7, 10 and 12 post-transplantation.

[7] = tested on: Non-Obese Diabetic (NOD) mice; assay: Intraperitoneal Glucose Tolerance Test (IPGTT) in NOD mice; assay type: in vivo; details: healthy NOD mice after 25 weeks
Procedure: Intraperitoneal Glucose Tolerance Test (IPGTT): The glucose tolerance test is the definitive method for investigating glucose metabolism and diabetic tendencies in mammals. Twenty five (25) weeks after receiving Synthetic peptides derived from casein, response to a glucose load was assessed with an intraperitoneal glucose tolerance test. Glucose injection consisted of 1 g/kg body weight. Glycemic values were determined from blood drawn prior to test (0 minutes) and 60 minutes after loading.

[8] = tested on: Sup-T1 cells; assay: Sup-T1 lymphocyte proliferation (cell counts); assay type: cell-based, human; details: data not shown
Procedure: [^3H]-thymidine incorporation test: In order to test the effect of peptides derived from natural casein on T cell proliferation, several concentrations of peptides derived from natural casein (10 mg/ml stock in RPMI) were added to Sup-T1 cell cultures in 96 flat bottom microwell plate (5000 cells/well), as described for HIV-1 infection in Sup-T1 cells. Cells were counted and their viability was determined by trypan blue dye exclusion. They were pulsed with [^3H]-thymidine at each time point (3, 7, 10 and 14 days) for 18 hours (over night) and harvested on glass fiber filters for radioactivity reading (Incorporation of [^3H]-thymidine into cellular DNA is proportional to degree of cell proliferation).

RPK [1P, synthetic peptide, N-terminal 3 amino acids of αS1 casein]
prevention of onset of glucosuria (in words) [1]: effectively prevented the onset of glucosuria | target cell lysis relative to untreated controls ([2]; PBS cells from 5 donors with hematopoietic disease, 25-250 μg/ml): from 2- to greater then 8-fold | effect on NK activity in PBSC from healthy human donors ([2]; healthy donors): No significant effect | Lymphocyte cell numbers ([3]; 100 μg per ml, infected control 1.06×10^6): 1.29×10^6 | HIV-1 infection level, HIV-P24 antigen ([3]; 100 μg/ml, 7 days post infection): 0.17 ng P^24 Antigen/ml | Lymphocyte cell numbers ([3]; 500 μg per ml, infected control 1.06×10^6): 2.01×10^6 | HIV-1 infection level, HIV-P24 antigen ([3]; 500 μg/ml, 7 days post infection): 0.14 ng P^24 Antigen/ml

RPKH [2P, synthetic peptide, N-terminal 4 amino acids of αS1 casein]
prevention of onset of glucosuria (in words) [1]: effectively prevented the onset of glucosuria | red blood cells, % of total cell count [4]: 71%

RPKHPI [4P, synthetic peptide, N-terminal 6 amino acids of αS1 casein]
myelocyte formation with G-CSF and IL-3 (in words) ([5]; 25 μg or more, 14 days): synergistic increase | increase in proliferation of granulocytes ([5]; in the presence of G-CSF): 18% | increase in platelet counts over control, 12 days post transplantation [6]: 29% | platelet counts, 12 days post transplantation [6]: 872000 mL⁻¹ | Cell counts ([3]; 25 μg per ml, virus pre-treated 3 hours, infected control 1.06×10^6): 1.26×10^6 | Cell numbers ([3]; 250 μg per ml, virus pre-treated 3 hours, infected control 1.06×10^6): 1.59×10^6 | HIV-P24 antigen, viral particles vs infected control (in words) ([3]; virus preincubated 3 hours, 7 days post infection): dose dependent reduction

RPKHPIKHQ [X, synthetic peptide, N-terminal 9 amino acids of αS1 casein]
prevention of glucosuria (in words) ([1]; 100 μg once weekly for 5 weeks, 25 weeks): highly effective | Healthy/Total (sugar not detected in urine) ([1]; female NOD mice, 100 μg synthetic peptide once weekly for 5 weeks, evaluated after 25 weeks): 3/5 | Urine Sugar ([1]; individual healthy NOD mice, after 25 weeks): Negative | IPGT test outcome (in words) [7]: no evidence of abnormal glucose metabolism | increase in lymphocyte cell number in infected cells ([8]; 250 μg per ml): 80% | increase in lymphocyte cell number in infected cells ([8]; 500 μg per ml): 33%
